Data reported in US7718680B2 (priority 2004, dated 2010).
Where two headings read alike, the source gives them in different places.

What was measured:
[1] = molecular target: T1, Lethal Factor (LF) protease of anthrax toxin (Bacillus anthracis, UniProt P15917); test: biochemical
[2] = molecular target: T1, Lethal Factor (LF) protease of anthrax toxin; test: biochemical; remark: listed apart in the source
macrophages = type: cell-based

T1 sequence (P15917 34-809 limits assumed): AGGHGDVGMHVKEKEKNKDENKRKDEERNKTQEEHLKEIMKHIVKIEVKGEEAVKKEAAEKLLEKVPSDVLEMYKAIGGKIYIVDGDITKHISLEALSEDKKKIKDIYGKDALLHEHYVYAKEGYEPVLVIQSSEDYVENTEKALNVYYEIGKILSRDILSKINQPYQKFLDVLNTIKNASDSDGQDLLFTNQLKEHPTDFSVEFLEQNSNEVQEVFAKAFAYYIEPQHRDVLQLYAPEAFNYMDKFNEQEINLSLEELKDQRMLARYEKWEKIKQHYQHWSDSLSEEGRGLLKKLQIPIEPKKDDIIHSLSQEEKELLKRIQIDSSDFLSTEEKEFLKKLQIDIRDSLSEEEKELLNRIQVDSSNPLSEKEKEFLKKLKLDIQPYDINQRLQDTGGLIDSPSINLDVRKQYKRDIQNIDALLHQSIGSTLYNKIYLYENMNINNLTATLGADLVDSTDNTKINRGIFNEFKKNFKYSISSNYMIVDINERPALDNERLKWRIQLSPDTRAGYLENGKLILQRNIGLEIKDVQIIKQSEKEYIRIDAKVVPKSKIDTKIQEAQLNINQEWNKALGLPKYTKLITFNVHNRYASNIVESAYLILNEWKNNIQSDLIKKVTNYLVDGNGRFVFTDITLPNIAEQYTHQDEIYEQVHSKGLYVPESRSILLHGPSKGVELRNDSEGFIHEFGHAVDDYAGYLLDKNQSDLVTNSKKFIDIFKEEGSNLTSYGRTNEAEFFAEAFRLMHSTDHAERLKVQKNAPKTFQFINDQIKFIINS

| SMILES | pIC50 Obs [1] | IC50 ([1]; read-out: IC50) | also measured |
| --- | --- | --- | --- |
| O=C(O)CN1C(=O)/C(=C/c2ccco2)SC1=S [BI-9B9b] | 3.85 | 140 µM | inhibition at 140 µM ([1]; read-out: LF inhibition): 50%; inhibition at 140 µM ([2]; read-out: LF inhibition): 50% |
| O=C(O)CN1C(=O)/C(=C/c2ccc(-c3ccc(Cl)cc3)o2)SC1=S [BI-11A9] | 6.05 | 0.9 µM | – |
| O=C(O)CN1C(=O)/C(=C/c2ccc(-c3ccc(Br)cc3)o2)SC1=S [BI-11A10] | 6.07 | 0.85 µM | – |
| O=C(O)CN1C(=O)/C(=C/c2ccc(-c3ccc(Cl)cc3[N+](=O)[O-])o2)SC1=S [BI-11A11] | 6.30 | 0.5 µM | – |
| O=C(O)CN1C(=O)/C(=C/c2ccc(-c3ccc(Cl)c(Cl)c3)o2)SC1=S [BI-11B2] | 6.58 | 0.265 µM | potency relative to GM6001 (macrophages): 100 fold |
| O=C(O)CN1C(=O)/C(=C/c2ccc(-c3cc(C(F)(F)F)ccc3Cl)o2)SC1=S [BI-11B3] | 6.71 | 0.195 µM | potency relative to GM6001 (macrophages): 100 fold; Ki [1]: 0.032 µM; LF activity / cleavage of fluorinated peptide seen by 19F NMR [2]: potent LF inhibition |
| O=C(O)CN1C(=O)/C(=C/c2ccc(-c3ccccc3)s2)SC1=S [BI-11B10] | 6.13 | 0.74 µM | – |
| CN1C(=N)NC(=O)/C1=C\c1ccc(-c2cc(C(F)(F)F)ccc2Cl)o1 [BI-11B11] | 4 | – | – |
| O=C1NC(=S)NC(=O)C1=Cc1ccc(-c2ccc(Cl)cc2)o1 [BI-11B12] | 5.36 | 4.4 µM | – |
| COc1ccc(-c2ccc(C=C3C(=O)NC(=S)NC3=O)o2)cc1Cl [BI-11C1] | 5.52 | 3 µM | – |
| O=C1NC(=S)NC(=O)C1=Cc1ccc(-c2cc(C(F)(F)F)ccc2Cl)o1 [BI-11C2] | 5.89 | 1.3 µM | – |
| O=C1NC(=S)NC(=O)C1=Cc1ccc(-c2ccc(Cl)c(Cl)c2)o1 [BI-11C3] | 5.68 | 2.1 µM | – |
| O=C1NC(=S)NC(=O)C1=Cc1ccc(-c2ccccc2)s1 [BI-11C4] | 5.92 | 1.2 µM | – |
| CN1C(=N)NC(=O)/C1=C\c1ccc(-c2ccc(Cl)cc2)o1 [BI-11C5] | 3.70 | 200 µM | – |
| CN1C(NC(=O)O)=NC(=O)/C1=C\c1ccc(-c2ccc(Cl)cc2)o1 [BI-11C11] | >4 | – | IC50 [1]: > 100 µM |
| O=C(O)CN1C(=O)/C(=C/c2ccc(-c3ccccc3)o2)SC1=S [BI-11C12] | 4.78 | 16.6 µM | – |
| O=C(O)CN1C(=O)/C(=C/c2cccs2)SC1=S [BI-11D1] | 4.10 | 79.4 µM | – |
| O=C(O)CN1C(=O)/C(=C/c2nccs2)SC1=S [BI-11D2] | 4.14 | 72.4 µM | – |
| O=C(O)CN1C(=O)/C(=C/c2ccc(-c3cccs3)s2)SC1=S [BI-11D3] | 5.64 | – | – |
| O=C(O)CN1C(=O)/C(=C/c2ncc(-c3ccc(Cl)cc3)s2)SC1=S [BI-11D5] | 5.00 | 10 µM | – |

| SMILES | pIC50 Obs [1] | IC50 ([1]; read-out: IC50) | also measured |
| --- | --- | --- | --- |
| COc1ccc(-c2cnc(/C=C3\SC(=S)N(CC(=O)O)C3=O)s2)cc1OC [BI-11D6] | 5.30 | 5 µM | – |
| O=C(O)CN1C(=O)S/C(=C\c2ccc(-c3ccc(Cl)c(Cl)c3)o2)C1=O [BI-11D8] | 5.25 | 5.6 µM | – |
| O=C(O)CN1C(=O)/C(=C/c2ccc(-c3cc(C(F)(F)F)ccc3Cl)o2)SC1=S [BI-11D9] | – | – | IC50 [1]: 5.9 µM |
| O=C(O)CN1C(=O)/C(=C/c2ccc(-c3ccc(Cl)cc3)s2)SC1=S [BI-11D10] | 5.49 | 3.2 µM | – |
| O=C(O)CN1C(=O)S/C(=C\c2ccc(/C=C3\SC(=S)N(CC(=O)O)C3=O)s2)C1=O [BI-11E2] | – | – | IC50 [1]: 1.58 µM |
| O=C(O)CN1C(=O)/C(=C/c2ncc(-c3ccc(F)cc3)s2)SC1=S [BI-11E3] | 4.65 | 22.4 µM | – |
| O=C(O)CN1C(=O)/C(=C/c2ncc(-c3ccc(Br)cc3)s2)SC1=S [BI-11E4] | 5.36 | 4.4 µM | – |
| O=C(O)CCN1C(=O)/C(=C/c2ccc(-c3ccc(Cl)cc3)o2)SC1=S [BI-MFM3] | 5.77 | 1.7 µM | Ki [1]: 0.8 ± 0.3 µM; effect on the Vmax [1]: no effect; type of inhibition [1]: competitive; inhibition at 10 µM ([1]; read-out: LF inhibition): > 70%; LF activity / cleavage of fluorinated peptide seen by 19F NMR [2]: Only the ^19F NMR signal relative to uncleaved peptide appears; inhibitory activity relative to GM6001 [2]: about twice as strong as GM6001 |
| O=C1/C(=C/c2ccc(-c3ccc(Cl)cc3)o2)SC(=S)N1Cc1ccco1 [Compound 2] | – | 150 µM | – |
| C=CCN1C(=O)/C(=C/c2ccc(-c3ccc(F)cc3)o2)SC1=S [Compound 3] | – | 50 µM | – |
| O=C1/C(=C/c2ccc(-c3ccccc3[N+](=O)[O-])o2)SC(=S)N1CCc1ccccc1 [Compound 6] | – | 31.9 µM | – |
| O=C(O)c1ccc(-c2ccc(/C=C3\SC(=S)N(Cc4cccnc4)C3=O)o2)cc1Cl [Compound 11] | – | 9.9 µM | – |
| NS(=O)(=O)c1ccc(-c2ccc(/C=C3\SC(=S)N(CC(=O)O)C3=O)o2)cc1 [Compound 12] | – | 9.1 µM | – |
| O=C1NC(=S)S/C1=C\c1ccc(-c2ccc(Cl)c(Cl)c2)o1 [Compound 13] | – | 7.4 µM | inhibition at 10 µM ([1]; read-out: LF inhibition): > 70% |
| O=C1NC(=S)S/C1=C\c1ccc(-c2ccc(Br)c(Cl)c2)o1 [Compound 14] | – | 7 µM | inhibition at 10 µM ([1]; read-out: LF inhibition): > 70% |
| O=C(O)CN1C(=O)/C(=C/c2ccc(-c3ccc(I)cc3)o2)SC1=S [Compound 16] | – | 5.5 µM | inhibition at 10 µM ([1]; read-out: LF inhibition): > 70% |
| C=CCN1C(=O)/C(=C/c2ccc(-c3ccc(C(=O)O)c(Cl)c3)o2)SC1=S [Compound 20] | – | 2.7 µM | – |
| O=C(O)CCCN1C(=O)/C(=C/c2ccc(-c3ccc(Br)cc3)o2)SC1=S [Compound 21] | – | 2.3 µM | – |
| CNC(=O)[C@H](Cc1c[nH]c2ccccc12)NC(=O)[C@@H](CC(=O)NO)CC(C)C [GM6001, reference compound] | – | – | LF activity / cleavage of fluorinated peptide seen by 19F NMR [2]: reduced by approximately half |
